Measured values as given in patent publication US8466153B2, “Piperidinylamino-pyridazines and their use as fast dissociating dopamine 2 receptor antagonists” (Janssen Pharmaceutica N.V., priority 2006, dated 2013).
Read-outs that look alike come from different tables or passages of the source.

Columns and labels:
[1] = test system: Apomorphine-induced agitation, stereotypy in rats; assay: Inhibition of the apomorphine induced agitation test in rats; format: in vivo; conditions: Rattus norvegicus, 0.5 h, apomorphine 1.0 mg/kg i.v. at 30 min, male Wiga Wistar rats
Description: Male Wiga Wistar rats (180-280 g) were administered test compound (sc: subcutaneously; po: orally; n=3 per dose; dose=0.16, 0.63 and 2.5 mg/kg) or solvent and then challenged with apomorphine (1.0 mg/kg, i.v.) at 30 min. The effects of the test compound on the behavioral changes were evaluated according to all-or-none criteria based on the distribution of results in a large series of control data obtained in solvent-pretreated rats.
Apomorphine (1.0 mg/kg, i.v.)-induced agitation, stereotypy (compulsive sniffing, licking, chewing), was scored every 5 min over the first hour after injection of apomorphine. The score system was: (3) pronounced, (2) moderate, (1) slight, and (0) absent. […] The table below gives the lowest active dose at which 3 out of 3 rats tested met one of the criteria for drug-induced inhibition of agitation.

[2] = molecular target: T1, human Dopamine D2L receptor (Homo sapiens, UniProt P14416); assay: In vitro binding affinity for human D2L receptor ([3H]spiperone competition); conditions: membranes of human D2L receptor-transfected CHO cells, 30 min, 37° C.
T1 construct: expressed in transfected cells; host or cells: CHO cells
T1 sequence (P14416 whole entry): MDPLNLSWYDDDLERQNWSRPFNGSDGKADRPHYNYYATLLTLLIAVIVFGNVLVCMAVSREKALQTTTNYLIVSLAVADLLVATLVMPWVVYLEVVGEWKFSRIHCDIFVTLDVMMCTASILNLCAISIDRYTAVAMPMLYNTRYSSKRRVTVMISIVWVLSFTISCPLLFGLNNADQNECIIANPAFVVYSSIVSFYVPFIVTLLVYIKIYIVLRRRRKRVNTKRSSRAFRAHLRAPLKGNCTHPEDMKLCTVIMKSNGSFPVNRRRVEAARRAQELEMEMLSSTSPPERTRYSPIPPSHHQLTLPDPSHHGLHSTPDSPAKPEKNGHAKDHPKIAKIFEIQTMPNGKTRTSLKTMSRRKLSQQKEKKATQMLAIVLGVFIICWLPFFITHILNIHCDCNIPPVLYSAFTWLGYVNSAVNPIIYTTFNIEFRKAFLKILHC
Text: In order to find antipsychotic compounds active against positive symptoms and having an improved safety profile (low EPS incidence and no metabolic disorders), we have screened for compounds selectively interacting with the dopamine D2 receptor and dissociating fast from this receptor. Compounds were first screened for their D2 affinity in a binding assay using [^3H]spiperone and human D2L receptor cell membranes.
Frozen membranes of human Dopamine D2L receptor-transfected CHO cells were thawed, briefly homogenised using an Ultra-Turrax T25 homogeniser and diluted in Tris-HCl assay buffer containing NaCl, CaCl2, MgCl2, KCl (50, 120, 2, 1, and 5 mM respectively, adjusted to pH 7.7 with HCl) to an appropriate protein concentration optimised for specific and non-specific binding. Radioligand [^3H]Spiperone (NEN, specific activity ˜70 Ci/mmol) was diluted in assay buffer at a concentration of 2 nmol/L. Prepared radioligand (50 μl), along with 50 μl of either the 10% DMSO control, Butaclamol (10^−6 mol/l final concentration), or compound of interest, was then incubated (30 min, 37° C.) with 400 μl of the prepared membrane solution. Membrane-bound activity was filtered through a Packard Filtermate harvester onto GF/B Unifilterplates and washed with ice-cold Tris-HCl buffer (50 mM; pH 7.7; 6×0.5 ml). Filters were allowed to dry before adding scintillation fluid and counting in a Topcount scintillation counter. Percentage specific bound and competition binding curves were calculated using S-Plus software (Insightful).

[3] = test system: panel of more than 50 common G-protein coupled receptors (CEREP); assay: Screen in a panel of more than 50 common G-protein coupled receptors (CEREP); format: binding; conditions: panel of more than 50 GPCRs
Text: Selected compounds E15, E16, E17 and E18 were further screened in a panel of more than 50 common G-protein coupled receptors (CEREP) and found to have a clean profile, that is to have low affinity for the tested receptors.

human D2L receptor = molecular target: T2, human D2L receptor (Homo sapiens, UniProt P14416); assay: Fast dissociation (indirect [3H]spiperone filter assay); format: binding; conditions: compound at 4 times its IC50 pre-incubated 1 h at 25° C.; [3H]spiperone 1 nM on filter for 5 minutes
T2 construct: expressed in transfected cells
T2 sequence (P14416 whole entry): as above
Description: Compounds were first screened for their D2 affinity in a binding assay using [^3H]spiperone and human D2L receptor cell membranes.
Immediately after, the vacuum was released. 0.4 ml of pre-warmed buffer (25° C.) containing 1 nM [^3H]spiperone was added on the filter for 5 minutes. The incubation was stopped by initiating the vacuum and immediate rinsing with 2×5 ml of ice-cold buffer. The filter-bound radioactivity was measured in a liquid scintillation spectrometer. The principle of the assay is based on the assumption that the faster a compound dissociates from the D2 receptor, the faster [^3H]spiperone binds to the D2 receptor.

[4] = sc, subcutaneously, read-out: sc Dose: lowest active dose at which 3 out of 3 rats met a criterion for inhibition of agitation
[5] = po, orally, read-out: po Dose: lowest active dose at which 3 out of 3 rats met a criterion for inhibition of agitation

## N#Cc1ccc(NC2CCN(Cc3ccc(F)c(F)c3)CC2)nn1 [Example E1, 6-[1-(3,4-Difluoro-benzyl)-piperidin-4-ylamino]-pyridazine-3-carbonitrile]
other
  melting point: 189.86 °C
[1]; [4]
  minimal effective dose: 2.5 mg/kg
[2]
  IC50: 4.07 µM

## N#Cc1ccc(NC2CCN(Cc3ccccc3)CC2)nn1 [Example D2, 6-(1-Benzyl-piperidin-4-ylamino)-pyridazin-3-carbonitrile]
[1]; [4]
  minimal effective dose: 2.5 mg/kg
[2]
  IC50: 2.95 µM

## N#Cc1ccc(NC2CCN(Cc3cc(F)cc(C(F)(F)F)c3)CC2)nn1 [Example E17, 6-[1-(3-Fluoro-5-trifluoromethyl-benzyl)-piperidin-4-ylamino]-pyridazine-3-carbonitrile]
[3]
  affinity profile for the tested receptors: low affinity
other
  melting point: 151.4 °C
[1]; [5]
  minimal effective dose: 1.25 mg/kg
[1]; [4]
  minimal effective dose: 0.63 mg/kg
[2]
  IC50: 3.02 µM
Human D2L receptor
  % Dissociation: 73%

## N#Cc1ccc(NC2CCN(Cc3ccc(Cl)cc3)CC2)nn1 [Example E3, 6-[1-(4-Chloro-benzyl)-piperidin-4-ylamino]-pyridazine-3-carbonitrile]
other
  melting point: 209.77 °C
[1]; [4]
  minimal effective dose: 0.63 mg/kg
[2]
  IC50: 1.05 µM
Human D2L receptor
  % Dissociation: 87%

## Cc1ccc(CN2CCC(Nc3ccc(C#N)nn3)CC2)cc1F [Example E4, 6-[1-(3-Fluoro-4-methyl-benzyl)-piperidin-4-ylamino]-pyridazine-3-carbonitrile]
other
  melting point: 171.84 °C
[1]; [4]
  minimal effective dose: 0.16 mg/kg
[2]
  IC50: 0.407 µM
Human D2L receptor
  % Dissociation: 82%

## Cc1ccc(CN2CCC(Nc3ccc(C#N)nn3)CC2)cc1C(F)(F)F [Example E10, 6-[1-(4-Methyl-3-trifluoromethyl-benzyl)-piperidin-4-ylamino]-pyridazine-3-carbonitrile]
other
  melting point: 187.3 °C
[1]; [4]
  minimal effective dose: > 2.5 mg/kg
[2]
  IC50: 6.46 µM

## Cc1c(C#N)nnc(NC2CCN(Cc3cc(F)cc(F)c3)CC2)c1C [Example E19, 6-[1-(3,5-Difluoro-benzyl)-piperidin-4-ylamino]-4,5-dimethyl-pyridazine-3-carbonitrile]
[1]; [5]
  minimal effective dose: 2.5 mg/kg
[1]; [4]
  minimal effective dose: 0.63 mg/kg
[2]
  IC50: 1.82 µM
Human D2L receptor
  % Dissociation: 83.66%

## N#Cc1ccc(NC2CCN(Cc3ccc(C(F)(F)F)cc3)CC2)nn1 [Example E7, 6-[1-(4-Trifluoromethyl-benzyl)-piperidin-4-ylamino]-pyridazine-3-carbonitrile]
other
  melting point: 243.1 °C
[1]; [5]
  minimal effective dose: 2.5 mg/kg
[1]; [4]
  minimal effective dose: 0.63 mg/kg
[2]
  IC50: > 10 µM
Human D2L receptor
  % Dissociation: 93.50%

## N#Cc1ccc(NC2CCN(Cc3cccc(F)c3)CC2)nn1 [Example E5, 6-[1-(3-Fluoro-benzyl)-piperidin-4-ylamino]-pyridazine-3-carbonitrile]
other
  melting point: 190.3 °C
[1]; [4]
  minimal effective dose: 2.5 mg/kg
[2]
  IC50: 6.03 µM

## Cc1ccc(CN2CCC(Nc3ccc(C#N)nn3)CC2)cc1 [Example E6, 6-[1-(4-Methyl-benzyl)-piperidin-4-ylamino]-pyridazine-3-carbonitrile]
other
  melting point: 191.62 °C
[1]; [4]
  minimal effective dose: 2.5 mg/kg
[2]
  IC50: 0.955 µM
Human D2L receptor
  % Dissociation: 84%

## N#Cc1ccc(NC2CCN(Cc3ccc(F)c(C(F)(F)F)c3)CC2)nn1 [Example E9, 6-[1-(4-Fluoro-3-trifluoromethyl-benzyl)-piperidin-4-ylamino]-pyridazine-3-carbonitrile]
other
  melting point: 183.1 °C
[1]; [4]
  minimal effective dose: 2.5 mg/kg
[2]
  IC50: 6.76 µM

## N#Cc1ccc(NC2CCN(Cc3ccc(F)cc3)CC2)nn1 [Example E2, 6-[1-(4-Fluoro-benzyl)-piperidin-4-ylamino]-pyridazine-3-carbonitrile]
other
  melting point: 187.44 °C
[1]; [5]
  minimal effective dose: 0.63 mg/kg
[1]; [4]
  minimal effective dose: 0.63 mg/kg
[2]
  IC50: 3.24 µM

## N#Cc1ccc(NC2CCN(Cc3cccc(Cl)c3)CC2)nn1 [Example E13, 6-[1-(3-Chloro-benzyl)-piperidin-4-ylamino]-pyridazine-3-carbonitrile]
other
  melting point: 151 °C
[1]; [4]
  minimal effective dose: 2.5 mg/kg
[2]
  IC50: 3.24 µM

## N#Cc1ccc(NC2CCN(Cc3cc(F)c(F)c(F)c3)CC2)nn1 [Example E18, 6-[1-(3,4,5-Trifluoro-benzyl)-piperidin-4-ylamino]-pyridazine-3-carbonitrile]
[3]
  affinity profile for the tested receptors: low affinity
other
  melting point: 185 °C
[1]; [5]
  minimal effective dose: 1.25 mg/kg
[1]; [4]
  minimal effective dose: 0.63 mg/kg
[2]
  IC50: 5.75 µM
Human D2L receptor
  % Dissociation: 95%

## N#Cc1ccc(NC2CCN(Cc3cc(F)cc(F)c3)CC2)nn1 [Example E15, 6-[1-(3,5-Difluoro-benzyl)-piperidin-4-ylamino]-pyridazine-3-carbonitrile]
[3]
  affinity profile for the tested receptors: low affinity
other
  melting point: 187.9 °C
[1]; [5]
  minimal effective dose: 1.25 mg/kg
[1]; [4]
  minimal effective dose: 0.63 mg/kg
[2]
  IC50: 6.61 µM
Human D2L receptor
  % Dissociation: 93.50%

## N#Cc1ccc(NC2CCN(Cc3ccc(OC(F)(F)F)c(Cl)c3)CC2)nn1 [Example E14, 6-[1-(3-Chloro-4-trifluoromethoxy-benzyl)-piperidin-4-ylamino]-pyridazine-3-carbonitrile]
[2]
  IC50: > 10 µM

## N#Cc1ccc(NC2CCN(Cc3cc(C(F)(F)F)ccc3F)CC2)nn1 [Example E12, 6-[1-(2-Fluoro-5-trifluoromethyl-benzyl)-piperidin-4-ylamino]-pyridazine-3-carbonitrile]
other
  melting point: 142.5 °C
[1]; [4]
  minimal effective dose: > 2.5 mg/kg
[2]
  IC50: 6.31 µM

## Cc1cc(NC2CCN(Cc3cc(F)cc(F)c3)CC2)nnc1C#N [Example E20, 6-[1-(3,5-Difluoro-benzyl)-piperidin-4-ylamino]-4-methyl-pyridazine-3-carbonitrile]
[1]; [4]
  minimal effective dose: 2.5 mg/kg
[2]
  IC50: 6.17 µM

## N#Cc1ccc(NC2CCN(Cc3cc(C(F)(F)F)cc(C(F)(F)F)c3)CC2)nn1 [Example E11, 6-[1-(3,5-Bis-trifluoromethyl-benzyl)-piperidin-4-ylamino]-pyridazine-3-carbonitrile]
other
  melting point: 125 °C
[2]
  IC50: > 10 µM

## N#Cc1ccc(NC2CCN(Cc3ccc(C(F)(F)F)c(F)c3)CC2)nn1 [Example E8, 6-[1-(3-Fluoro-4-trifluoromethyl-benzyl)-piperidin-4-ylamino]-pyridazine-3-carbonitrile]
other
  melting point: 178.6 °C
[1]; [5]
  minimal effective dose: 2.5 mg/kg
[1]; [4]
  minimal effective dose: 2.5 mg/kg
[2]
  IC50: 7.59 µM
Human D2L receptor
  % Dissociation: 89.50%

## N#Cc1ccc(NC2CCN(Cc3cccc(C(F)(F)F)c3)CC2)nn1 [Example E16, 6-[1-(3-Trifluoromethyl-benzyl)-piperidin-4-ylamino]-pyridazine-3-carbonitrile]
[3]
  affinity profile for the tested receptors: low affinity
other
  melting point: 170.3 °C
[1]; [5]
  minimal effective dose: 0.63 mg/kg
[1]; [4]
  minimal effective dose: 0.63 mg/kg
[2]
  IC50: 1.41 µM
Human D2L receptor
  % Dissociation: 79.50%
